{
  "source": "patent US5122608A",
  "about": "“Method for the preparation of substituted and unsubstituted 2,3-pyridine and quinolinedicarboxylic acids” (priority 1990, dated 1992)",
  "origin": "cited, not measured here",
  "settings": "ionization constant; representative mineral and organic acids",
  "data": [
    {"compound": "O=C(O)C(Cl)(Cl)Cl", "note": "[Trichloroacetic]", "values": [
      {"measurement": "pKa", "result": 0.5}
    ]},
    {"compound": "CCc1ccc(S(=O)(=O)O)cc1", "note": "[p-Ethylbenzene sulfonic]", "values": [
      {"measurement": "pKa", "result": 0.9}
    ]}
  ]
}
